# Laboratory results as given in paper PMC7180617, “Biological Evaluation of 3-Benzylidenechromanones and Their Spiropyrazolines-Based Analogues” (Molecules, 2020).
# Several values for one entry are separate records, joined by “and”; a condition that tells them apart may be missing. Equal entries are not always repeated.
# Assays:
# HL-60 cells [1] = assay: MTT cytotoxicity assay, HL-60; type: cell-based, human; settings: Homo sapiens, HL-60, 48 h, MTT, 46 h + 2 h incubation
# Method: (§1) The first stage of the study used the MTT viability test to determine the cytotoxicity of ten compounds, i.e., 3-arylidenechromanone, 3-arylideneflavanone, spirochromanone and spiro- flavanone analogues, against four human cancer cell lines: HL-60, NALM-6, WM-115 and COLO-205.
# (§2) Cytotoxicity was tested against human skin melanoma cells (WM-115, ECACC, Salisbury, UK), two human leukemia cell lines, viz. promyelocytic leukemia (HL-60) and lymphoblastic leukemia (NALM-6), and human colon adenocarcinoma cells (COLO-205). The cell lines COLO-205, WM-115 and HL-60 used in this work came from the ATCC American Type Culture Collection (Manassas, VA, USA), whereas the NALM-6 cell line was purchased from the German Collection of Microorganisms and Cell Cultures (Braunschweig, Germany). The leukaemia cells and colon adenocarcinoma were cultured in RPMI 1640 medium (Invitrogen, Grand Island, NY, USA) supplemented with 10% fetal bovine serum (FBS; Invitrogen) and gentamicin (25 µg/mL; KRKA, Novo Mesto, Slovenia). For melanoma WM-115 cells, Dulbecco’s minimal essential medium (DMEM; Invitrogen) was used. All cell lines were cultured at 37 °C in a humidified atmosphere of 5% CO2 in air.
# (§3) For all experiments, the studied compounds were dissolved in DMSO (Sigma-Aldrich) and were further diluted in culture medium to obtain <0.1% DMSO concentration. In each experiment, controls with and without 0.1% DMSO were performed. The cytotoxicity of all compounds and of the reference compounds 4-chromanone and 3-benzylideneflavanone was determined by the MTT assay, i.e., 3-(4,5-dimethylthiazol-2-yl)-2,5-diphenyltetrazolium bromide (Sigma, St. Louis, MO, USA), which measures cellular dehydrogenase activity. Exponentially growing cells were seeded a day before the experiment onto a 96-well microplates (Nunc, Roskilde, Denmark) at a density up to 6–8 × 10^3 cells/well (depending on the cell line). Subsequently, various concentrations of the studied compounds freshly prepared in DMSO and diluted with complete culture medium were added. All compounds were tested for their cytotoxicity at a final concentration of 10^−7–10^−3 M. After 46 h of incubation with the studied compounds, the cells were treated with the MTT reagent and incubation was continued for another two hours. MTT – formazan crystals were dissolved in 20% sodium dodecyl sulphate (SDS, Sigma-Aldrich) and 50% DMF (Sigma-Aldrich) at pH 4.7; following this, absorbance was read at 570 nm on a multifunctional Victor ELISA-plate reader (Perkin Elmer, Turku, Finland). The IC50 values, i.e., the concentration of the test compound required to reduce the cell survival fraction to 50% of controls, were calculated from concentration-response curves and used as a measure of the sensitivity of the cells to a given treatment. As a control, cultured cells were grown in the absence of drugs. The data points represent the means of at least five to ten repeats ± standard deviation (S.D.).
# WM-115 cells = assay: MTT cytotoxicity assay, WM-115; type: cell-based, human; settings: Homo sapiens, WM-115, 48 h, MTT, 46 h + 2 h incubation
# Method: as §1, §2, §3
# COLO-205 cells = assay: MTT cytotoxicity assay, COLO-205; type: cell-based, human; settings: Homo sapiens, COLO 205, 48 h, 46 h + 2 h incubation
# Method: as §1, §2, §3
# [2] = test system: red blood cells (RBC membrane integrity); assay: Red blood cell lysis assay; type: cell-based; settings: 2% RBC suspension, 37 °C, 1 h
# From the text: All synthesized compounds with potential biological activity have to be tested for blood compatibility since xenobiotics will react with blood cells upon administration. In this case, biocompatibility refers to the quantification of cellular and plasma components of the blood. The measurement of the integrity of RBC membrane is considered a simple and reliable method for estimating hemocompatibility.
# The studies on biological material were approved by the Bioethics Committee of the Medical University of Lodz, Poland (RNN/109/16/KE). The blood samples were obtained from healthy donors at the Blood Donation Centre in Lodz. The procedure for plasma preparation for erythrotoxicity studies was described previously. The influence of synthesized compounds as well as two reference compounds flavanone and chromanone on RBC membrane integrity was performed by lysis assay which was conducted according to our previous protocol. Briefly, 2% RBC suspension in 0.9% NaCl was incubated at 37 °C for one hour with the tested compounds at various concentrations corresponding to their activity towards cancer cell lines or 0.9% NaCl (control). The samples were centrifuged at 3000 rpm for 10 min and the absorbance of the supernatant was measured at 550 nm. The results are presented as percentage of haemolysis where a sample containing 10 μL of 2.0% v/v Triton X-100 was regarded as a positive control contributing to 100% of haemolysis. A sample containing saline solution represented spontaneous haemolysis of RBCs (control). The studies were performed on four biological samples obtained from different blood donors (n = 4). The results are presented as mean ± standard deviation (SD). The coefficient of variability for the method was counted: W = 9.51%, n = 5.
# HL-60 cells [3] = assay: Cell cycle analysis by flow cytometry (propidium iodide); type: cell-based, human; settings: for cell cycle, G1, mean / cell cycle, G2/M, mean / cell cycle, S, mean: mean of n=2; for cell cycle distribution, G1 / cell cycle distribution, G2 / cell cycle distribution, G2/M: HL-60, 20 h, mean ± SD, n = 2
# Method: The next stage examined the effects of the selected compounds on cell cycle progression in HL-60 leukemia cells. […] One million HL-60 (subline CCL 240; cell type: promyeloblast) cells in 3 mL of RPMI 1640 supplemented with 20% FBS were seeded on 6-well plate. […] Fixed cells were stored in −20 °C for 2–3 days. Before analysis, cells were centrifuged (10 min, 1500 rpm, 4 °C) and washed twice with cold PBS. After the second wash, the cells were suspended in 1mL of PBS containing 100 μg of RNase A and incubated in 37 °C for 10 min. Next, 5 μL of solution of propidium iodide (1 mg/mL) was added to each sample and incubated in dark for 30 min at RT. Stained cells were analyzed by flow cytometry (FACS Calibur, BD Biosciences, San Jose, CA, USA). Data from 10,000 gated cells were collected using CellQuestPro software (Ver 6.0, Becton Dickinson) and cell cycle analysis was performed with ModFit LT software (Ver 3.2, Verity Software House, Topsham, ME, USA).
# [4] = Figure S3, HL-60, 0.5 × IC50 (µM: quercetin 29, 1 1.5, 7 18, 10 4.7, 11 4.5, 12 6)
# [5] = Figure S3, HL-60, 0.5 × IC50, each of two repetitions
# [6] = Figure S3, HL-60, 1 × IC50 (µM: quercetin 58, 1 3, 7 35, 10 9.4, 11 9, 12 12)
# [7] = Figure S3, HL-60, 1 × IC50, each of two repetitions
# [8] = 0.5 × IC50 (µM: quercetin 29, 2 1.5, 7 18, 12 6, 11 4.5, 10 4.7)
# [9] = 1 × IC50 (µM: quercetin 58, 2 3, 7 35, 12 12, 11 9, 10 9.4)
compound,measurement,setting,value
"O=C1/C(=C/c2ccccc2)COc2ccccc21 [Compound 7, (E)-3-benzylidene-chroman-4-one]",IC50,HL-60 cells [1],34.8 ± 2.87 µM
same,IC50,WM-115 cells,12.8 ± 1.83 µM
same,IC50,COLO-205 cells,31 ± 1.4 µM
same,effect on RBC hemolysis / erythrocyte membrane integrity (in words),[2],no significant effects on RBC hemolysis were observed up to 35 µM
same,"cell cycle, G1, mean",HL-60 cells [3]; [4],"57,71%"
same,"cell cycle, G2/M, mean",HL-60 cells [3]; [4],"20,82%"
same,"cell cycle, S, mean",HL-60 cells [3]; [4],"21,48%"
same,"cell cycle, G1, single repetitions",HL-60 cells [3]; [5],"52,64% and 62,77%"
same,"cell cycle, G2/M, single repetitions",HL-60 cells [3]; [5],"18,44% and 23,20%"
same,"cell cycle, S, single repetitions",HL-60 cells [3]; [5],"18,79% and 24,16%"
same,"cell cycle, G1, mean","HL-60 cells [3]; Figure S3, HL-60, 1 × IC50 (µM in parenthesis: quercetin 58, 1 3, 7 35, 10 9.4, 11 9, 12 12)","50,37%"
same,"cell cycle, G2/M, mean",HL-60 cells [3]; [6],"26,09%"
same,"cell cycle, S, mean",HL-60 cells [3]; [6],"23,55%"
same,"cell cycle, G1, single repetitions",HL-60 cells [3]; [7],"51,06% and 49,68%"
same,"cell cycle, G2/M, single repetitions",HL-60 cells [3]; [7],"26,04% and 26,13%"
same,"cell cycle, S, single repetitions",HL-60 cells [3]; [7],"22,89% and 24,20%"
same,"cell cycle distribution, G1",HL-60 cells [3]; [8],57.7 ± 7.2%
same,"cell cycle distribution, G2",HL-60 cells [3]; [8],21.5 ± 3.8%
same,"cell cycle distribution, G2/M",HL-60 cells [3]; [8],20.8 ± 3.4%
same,"cell cycle distribution, G1",HL-60 cells [3]; [9],50.4 ± 1.0%
same,"cell cycle distribution, G2",HL-60 cells [3]; [9],23.5 ± 0.9%
same,"cell cycle distribution, G2/M",HL-60 cells [3]; [9],26.1 ± 0.1%
same,cells arrested in G2/M phase,"HL-60 cells [3]; HL-60, concentrations of IC50 and 0.5 × IC50",20–26%
